In the supplement of paper PMC10307832:

Experiments:
Test in all cases: relative viability (nuclei count vs DMSO), 5 days (fraction); higher = more cells survive
TGX 221 + Dasatinib = compound: CC1=CN2C(=O)C=C(N=C2C(=C1)C(C)NC3=CC=CC=C3)N4CCOCC4 [TGX 221] + Cc1nc(Nc2ncc(C(=O)Nc3c(C)cccc3Cl)s2)cc(N2CCN(CCO)CC2)n1 [Dasatinib] (partner 0.075 µM)
Summary of the method: (§1)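 Nuclei were stained with Hoechst during a one-step fixation (final 0.05% Triton X-100, 1% formaldehyde, 1 ug/ml Hoechst) carried out 5 days after dosing, then counted on 4× images. The cells, lung cancer lines in 1536-well plates, had been dosed by pin tool the day after seeding with one drug alone or a fixed anchor-drug dose plus five library-drug doses (not always all listed) in √10 steps. Relative viability is the nuclei count in treated wells divided by that in vehicle wells, and each value is the median of duplicate plates.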

TGX 221 + Lapatinib = compound: CC1=CN2C(=O)C=C(N=C2C(=C1)C(C)NC3=CC=CC=C3)N4CCOCC4 [TGX 221] + CS(=O)(=O)CCNCc1ccc(-c2ccc3ncnc(Nc4ccc(OCc5cccc(F)c5)c(Cl)c4)c3c2)o1 [Lapatinib] (partner 2 µM)
Summary of the method: as §1

[1] = compound: C1=CC=C(C(=C1)C2=CC=C(C=C2)C3=CSC4=C3C(=C(C(=O)N4)C#N)O)O + CS(=O)(=O)CCNCc1ccc(-c2ccc3ncnc(Nc4ccc(OCc5cccc(F)c5)c(Cl)c4)c3c2)o1 [Lapatinib] (partner 2 µM)
Summary of the method: as §1

TGX 221 + Trametinib = compound: CC1=CN2C(=O)C=C(N=C2C(=C1)C(C)NC3=CC=CC=C3)N4CCOCC4 [TGX 221] + CC(=O)Nc1cccc(-n2c(=O)n(C3CC3)c(=O)c3c(Nc4ccc(I)cc4F)n(C)c(=O)c(C)c32)c1 [Trametinib] (partner 0.02 µM)
Summary of the method: as §1

Cell Line | relative viability (TGX 221 + Dasatinib; first compound 0.08 µM) | relative viability (TGX 221 + Dasatinib; first compound 0.253 µM) | relative viability (TGX 221 + Dasatinib; first compound 0.8 µM) | relative viability (TGX 221 + Dasatinib; first compound 2.53 µM) | relative viability (TGX 221 + Dasatinib; first compound 8 µM) | relative viability (TGX 221 + Lapatinib; first compound 0.08 µM) | relative viability (TGX 221 + Lapatinib; first compound 0.253 µM) | relative viability (TGX 221 + Lapatinib; first compound 0.8 µM) | relative viability (TGX 221 + Lapatinib; first compound 2.53 µM) | relative viability (TGX 221 + Lapatinib; first compound 8 µM) | relative viability ([1]; first compound 0.08 µM) | relative viability ([1]; first compound 0.253 µM) | relative viability ([1]; first compound 0.8 µM) | relative viability ([1]; first compound 2.53 µM) | relative viability ([1]; first compound 8 µM) | relative viability (TGX 221 + Trametinib; first compound 0.08 µM) | relative viability (TGX 221 + Trametinib; first compound 0.253 µM) | relative viability (TGX 221 + Trametinib; first compound 0.8 µM) | relative viability (TGX 221 + Trametinib; first compound 2.53 µM) | relative viability (TGX 221 + Trametinib; first compound 8 µM)
NCI-H1734 | 0.472 | 0.393 | 0.433 | 0.444 | 0.391 | 0.907 | 1.05 | 1.1 | 1.06 | 0.927 | 1.09 | 1.05 | 1.16 | 1.01 | 0.887 | 0.678 | 0.602 | 0.71 | 0.66 | 0.688
NCI-H1993 | 0.504 | 0.634 | 0.557 | 0.541 | 0.572 | 0.786 | 0.697 | 0.766 | 0.689 | 0.915 | 0.889 | 0.814 | 0.764 | 0.869 | 0.782 | 0.797 | 0.508 | 0.526 | 0.507 | 0.529
HCC-827 | 0.28 | 0.296 | 0.387 | 0.273 | 0.15 | 0.187 | 0.205 | 0.2 | 0.191 | 0.205 | 0.185 | 0.201 | 0.197 | 0.184 | 0.18 | 0.556 | 0.473 | 0.478 | 0.44 | 0.493
NCI-H1437 | 0.408 | 0.427 | 0.517 | 0.323 | 0.356 | 0.904 | 0.722 | 0.773 | 0.72 | 0.711 | 0.72 | 0.794 | 0.772 | 0.891 | 0.527 | 0.462 | 0.448 | 0.437 | 0.38 | 0.415
EPLC-272H | 0.392 | 0.29 | 0.351 | 0.302 | 0.287 | 1.04 | 0.881 | 0.822 |  | 0.962 |  | 0.924 | 0.849 | 0.897 | 1.01 | 0.246 | 0.269 | 0.271 | 0.242 | 0.254
NCI-H2126 | 0.512 | 0.61 | 0.615 | 0.578 | 0.585 | 0.61 | 0.752 | 0.667 | 0.616 | 0.717 | 0.737 | 0.748 | 0.728 | 0.766 | 0.834 | 0.535 | 0.441 | 0.568 | 0.547 | 0.56
NCI-H1666 | 0.81 | 0.756 | 0.778 | 0.739 | 0.753 | 0.648 | 0.654 | 0.695 | 0.618 | 0.683 | 0.667 | 0.826 | 0.577 | 0.427 | 0.59 | 0.726 | 0.797 | 0.852 | 0.884 | 0.742
RERF-LC-KJ | 0.692 | 0.795 | 0.811 | 0.764 | 0.744 | 0.837 | 0.824 | 0.749 | 0.829 | 0.84 | 0.787 | 0.883 | 0.884 | 0.833 | 0.848 | 0.686 | 0.756 | 0.83 | 0.775 | 0.753
